# Experimental data reported in US7928264B2, “Aminoalcohol derivatives” (Astellas Pharma Inc., priority 2004, dated 2011).
# System: increase in intravesical pressure induced by carbachol in anesthetized dog
# Assay: Effect on the increase in intravesical pressure induced by carbachol in anesthetized dog
# Type: in vivo
# Conditions: 0.032 mg/kg, administered intradermally 30 minutes before carbachol (1.8 μg/kg); female Beagle dogs under halothane anesthesia
# Protocol: Effect on the increase in intravesical pressure induced by carbachol in anesthetized dog
# Female Beagle dogs weighing 8.0-15.0 kg were fasted for 24 hours and maintained under halothane anesthesia. A 12F Foley catheter was lubricated with water soluble jelly, inserted into the urethral orifice, and advanced approximately 10 cm until the balloon tip was placed well inside the bladder. The balloon was then inflated with 5 ml of room air and catheter slowly withdrawn just part the first resistance that was felt at the bladder neck. Urine was completely drained out through the catheter, and 30 ml of biological saline was infused. The catheter was connected to pressure transducer, and intravesical pressure (IVP) was continuously recorded. The test compound was administered intradermally at 30 minutes before the administration of carbachol (1.8 μg/kg). Percent inhibition of IVP increase by test compound was calculated by dividing IVPa (IVP increase induced by carbachol after test compound administration) by IVPb (IVP increase induced by carbachol just before test compound administration).
smiles,measurement,value
"Cl.O=C(NS(=O)(=O)CCO)c1ccc(-c2ccc(CCNC[C@H](O)c3ccccc3)cc2)cc1OC1CCCCC1 [Test Compound (1), 3-(Cyclohexyloxy)-N-[(2-hydroxyethyl)sulfonyl]-4′-[2-[[(2R)-2-hydroxy-2-phenylethyl]amino]ethyl]-4-biphenylcarboxamide hydrochloride]",Percent inhibition of IVP increase,78%
